Tests used:
[1] = system: Bifidobacterium bifidum NITE BP-02431; test: Single bacterial culturing with HMO as sugar source, OD650; type: cell-based; details: sugar source 2%, anaerobic 37° C., 8 h, Table 5
Experimental: (§1) A10% solution of glucose (manufactured by Nakarai Tesque Inc.), and 2′-FL ((≥95%) Funakoshi, available from sigma), and LNnT (manufactured by ELICITYL) as examples of HMOs was prepared with ion exchanged water, and was subjected to sterile filtration using Millex-GV (SLGV033RS).
(§2) Lactobacilli MRS Broth (BD) (0.05% L-Cysteine Hydrochloride for Bacteria of the genus Bifidobacterium) was added to strains of Table 1 below (bacteria belonging to Bifidobacterium bifidum) and Table 2 below. After a sterilization treatment, 3% of the bacterial solution was inoculated, and anaerobically cultured (pre-pre cultured) at 37° C. for 16 h.
(§3) The following day, 1% glucose was added to a modified BL agar medium (“Studies on Bifidobacteria” by Tomotari Mitsuoka, p. 306, Japan Bifidus Foundation, issued in 1994) noted in Table 3, for preparation. After a sterilization treatment, 3% of the pre-pre cultured bacterial solution was inoculated, and anaerobically pre-cultured (pre-cultured) at 37° C. for 12 h.
(§4) The pre-cultured bacterial solution was collected and washed once with a sterile physiological saline solution. Then, mass-up was performed to an equal volume with the modified BL agar medium (“Studies on Bifidobacteria” by Tomotari Mitsuoka, p. 306, Japan Bifidus Foundation, issued in 1994) noted in Table 3 to prepare a suspended bacterial solution.
(§5) The modified BL agar medium (“Studies on Bifidobacteria” by Tomotari Mitsuoka, p. 306, Japan Bifidus Foundation, issued in 1994) noted in Table 3 was prepared at a capacity of 60%, and was subjected to an autoclave sterilization treatment. Then, 40% of each sugar solution prepared in (1) was aseptically added so as to prepare a medium with a sugar concentration of 4%.
(§6) The medium prepared in the above (3) was dispensed at a capacity that is half the capacity for culturing in a 96-well plate, and the bacterial solution prepared in the above (2) was dispensed at a remaining half capacity such that the bacterial solution had 6%. Then, a final sugar concentration was set to 2%. The plate into which the bacterial solution was dispensed was anaerobically cultured at 37° C. for 8 h.
(§7) OD650 was measured from each well in the plates in the above (4) and the above (5) before (0 h) culturing and after (8 h) culturing, by MICROPLATE READER SH-9000 (manufactured by CORONA ELECTRIC). After turbidity measurement, microbial cells were collected, and DNA extraction was performed. After the DNA extraction, the number of proliferating bacteria of Bifidobacteria/lactobacilli was analyzed by using the bacterial species-specific primer noted in Table 4, by a quantitative PCR method (see “Structural analysis of intestinal flora”—analysis of bacterial flora in human feces using quantitative PCR—by Kouichi Watanabe, Enterobacteriological journal, 20:35-42, 2006).
(§8) Regarding bacteria belonging to Bifidobacterium bifidum in Table 1, each strain was cultured as a single bacterium by 2′-FL or LNnT (HMOs) as a sugar source, and OD650 was measured. Table 5 illustrates OD650 increase values after seven strains of the bacteria belonging to Bifidobacterium bifidum in Table 1 were cultured for 8 h by 2′-FL or LNnT as a sugar source.

[2] = system: Bifidobacterium bifidum NITE BP-02432; test: as above; type: cell-based; details: sugar source 2%, anaerobic 37° C., 8 h, Table 5
Experimental: as §1, §2, §3, §4, §5, §6, §7, §8

[3] = system: Bifidobacterium bifidum NITE BP-02433; test: as above; type: cell-based; details: sugar source 2%, anaerobic 37° C., 8 h, Table 5
Experimental: as §1, §2, §3, §4, §5, §6, §7, §8

[4] = system: Bifidobacterium bifidum NITE BP-1252; test: as above; type: cell-based; details: sugar source 2%, anaerobic 37° C., 8 h, Table 5
Experimental: as §1, §2, §3, §4, §5, §6, §7, §8

[5] = system: Bifidobacterium bifidum NITE P-02648; test: as above; type: cell-based; details: sugar source 2%, anaerobic 37° C., 8 h, Table 5
Experimental: as §1, §2, §3, §4, §5, §6, §7, §8

[6] = system: Bifidobacterium adolescentis ATCC15703; test: Mix-culturing with Bifidobacterium bifidum by HMO as sugar source, quantitative PCR; type: cell-based; details: ATCC 15703^7 mix-cultured with Bifidobacterium bifidum (NITE BP-02429), sugar source 2%, Table 8
Experimental: as §1, §2, §3, §4, §5
(§9) The medium prepared in the above (3) was dispensed at a capacity that is half the capacity for aseptic culturing in a 96-well plate, and each of the bacterial solutions of strains of bacteria belonging to Bifidobacterium bifidum in Table 1 and probiotics having a low ability to assimilate human milk oligosaccharides in Table 2, which was prepared in the above (2), was dispensed at a remaining […] capacity into the medium prepared in the above (3) such that the bacterial solution had 12%. Then, a final sugar concentration was set to 2%. The plate into which the bacterial solution was dispensed was anaerobically cultured at 37° C. for 8 h.
as §7
(§10) It was decided to culture Bifidobacterium bifidum (NITE BP-02429) in which availability of 2′-FL or LNnT was found as described above, in combination with strains in Table 2, which cannot use 2′-FL or LNnT. Bifidobacterium bifidum (NITE BP-02429) and the strains in Table 2, which cannot use 2′-FL or LNnT, were mix-cultured by 2′-FL or LNnT as a sugar source, and after culturing for 8 h, the proliferation rate of the number of bacteria of each strain (proliferation rate=the number of bacteria after mix-culturing for 8 h/the number of bacteria after single bacterial culturing) was measured by a quantitative PCR method using each strain-specific oligonucleotide primer noted in Table 4, for the strain in Table 2.

[7] = system: Lactobacillus plantarum ATCC14917; test: as above; type: cell-based; details: ATCC 14917^T mix-cultured with Bifidobacterium bifidum (NITE BP-02429), sugar source 2%, Table 8
Experimental: as §1, §2, §3, §4, §5, §9, §7, §10

[8] = system: Bifidobacterium animalis subspecies lactis MCC-525; test: as above; type: cell-based; details: for Proliferation rate (number of bacteria after mix-culturing for 8 h/number of bacteria after single bacterial culturing): MCC-525 mix-cultured with Bifidobacterium bifidum (NITE BP-02429), sugar source 2%, Table 8; for Proliferation rate of MCC-525 (mix-cultured bacteria after 8 h/single bacterial culturing 8 h): Table 10; for number of proliferating bacteria of MCC-525 in combination with seven strains of Bifidobacterium bifidum compared to single bacterium culture: summary of Table 10
Experimental: as §1, §2, §3, §4, §5, §9, §7, §10
Seven strains of Bifidobacterium bifidum in Table 1 and Bifidobacterium animalis subspecies lactis MCC-525 which cannot use 2′-FL or LNnT were mix-cultured by 2′-FL or LNnT as a sugar source. […]

[9] = system: Lactobacillus acidophhilus ATCC4356; test: as above; type: cell-based, Lactobacillus acidophilus; details: ATCC 4356^T mix-cultured with Bifidobacterium bifidum (NITE BP-02429), sugar source 2%, Table 8
Experimental: as §1
as §2, with “h. […]” for “h.”
OD650 was measured from each well in the plates in the above (4) and the above (5) before (0 h) culturing and after (8 h) culturing, by MICROPLATE READER SH-9000 (manufactured by CORONA ELECTRIC). […] After the DNA extraction, the number of proliferating bacteria of Bifidobacteria/lactobacilli was analyzed by using the bacterial species-specific primer noted in Table 4, by a quantitative PCR method (see “Structural analysis of intestinal flora”—analysis of bacterial flora in human feces using quantitative PCR—by Kouichi Watanabe, Enterobacteriological journal, 20:35-42, 2006). […]

[10] = system: Lactobacillus gasseri ATCC 33323; test: as above; type: cell-based; details: for Proliferation rate (number of bacteria after mix-culturing for 8 h/number of bacteria after single bacterial culturing): ATCC 33323^T mix-cultured with Bifidobacterium bifidum (NITE BP-02429), sugar source 2%, Table 8; for proliferation rate of Lactobacillus gasseri ATCC 33323^T (mix-cultured bacteria after 8 h/single bacterial culturing 8 h): Table 11
Experimental: as §1, §2, §3, §4, §5, §9, §7, §10
Seven strains of Bifidobacterium bifidum in Table 1 and Lactobacillus gasseri ATCC 33323^T which cannot use 2′-FL were mix-cultured by 2′-FL as a sugar source. […]

[11] = mix-cultured with Bifidobacterium bifidum ATCC 29521^T
[12] = mix-cultured with Bifidobacterium bifidum NITE BP-1252
[13] = mix-cultured with Bifidobacterium bifidum NITE BP-02429
[14] = mix-cultured with Bifidobacterium bifidum NITE BP-02431
[15] = mix-cultured with Bifidobacterium bifidum NITE BP-02432
[16] = mix-cultured with Bifidobacterium bifidum NITE BP-02433
[17] = mix-cultured with Bifidobacterium bifidum NITE P-02648

Compound	OD650 increase value [1]	OD650 increase value [2]	OD650 increase value [3]	OD650 increase value [4]	OD650 increase value [5]	Proliferation rate (number of bacteria after mix-culturing for 8 h/number of bacteria after single bacterial culturing) [6]	Proliferation rate (number of bacteria after mix-culturing for 8 h/number of bacteria after single bacterial culturing) [7]	Proliferation rate (number of bacteria after mix-culturing for 8 h/number of bacteria after single bacterial culturing) [8]	Proliferation rate of MCC-525 (mix-cultured bacteria after 8 h/single bacterial culturing 8 h) [8, 11]	Proliferation rate of MCC-525 (mix-cultured bacteria after 8 h/single bacterial culturing 8 h) [8, 12]	Proliferation rate of MCC-525 (mix-cultured bacteria after 8 h/single bacterial culturing 8 h) [8, 13]	Proliferation rate of MCC-525 (mix-cultured bacteria after 8 h/single bacterial culturing 8 h) [8, 14]	Proliferation rate of MCC-525 (mix-cultured bacteria after 8 h/single bacterial culturing 8 h) [8, 15]	Proliferation rate of MCC-525 (mix-cultured bacteria after 8 h/single bacterial culturing 8 h) [8, 16]	Proliferation rate of MCC-525 (mix-cultured bacteria after 8 h/single bacterial culturing 8 h) [8, 17]	number of proliferating bacteria of MCC-525 in combination with seven strains of Bifidobacterium bifidum compared to single bacterium culture [8]	Proliferation rate (number of bacteria after mix-culturing for 8 h/number of bacteria after single bacterial culturing) [9]	Proliferation rate (number of bacteria after mix-culturing for 8 h/number of bacteria after single bacterial culturing) [10]	other results
2′-fucosyllactose [2′-FL]	0.037	0.430	0.431	0.225	0.470	1.91	1.76	2.62	2.01	2.06	4.85	3.82	2.45	3.67	4.35	promoted	3.54	3.70	proliferation rate of Lactobacillus gasseri ATCC 33323^T (mix-cultured bacteria after 8 h/single bacterial culturing 8 h) [10, 11]: 1.45; proliferation rate of Lactobacillus gasseri ATCC 33323^T (mix-cultured bacteria after 8 h/single bacterial culturing 8 h) [10, 12]: 3.99; proliferation rate of Lactobacillus gasseri ATCC 33323^T (mix-cultured bacteria after 8 h/single bacterial culturing 8 h) [10, 13]: 2.33; proliferation rate of Lactobacillus gasseri ATCC 33323^T (mix-cultured bacteria after 8 h/single bacterial culturing 8 h) [10, 14]: 4.42; proliferation rate of Lactobacillus gasseri ATCC 33323^T (mix-cultured bacteria after 8 h/single bacterial culturing 8 h) [10, 15]: 3.99; proliferation rate of Lactobacillus gasseri ATCC 33323^T (mix-cultured bacteria after 8 h/single bacterial culturing 8 h) [10, 16]: 3.64; proliferation rate of Lactobacillus gasseri ATCC 33323^T (mix-cultured bacteria after 8 h/single bacterial culturing 8 h) [10, 17]: 2.88; number of proliferating bacteria of Lactobacillus gasseri ATCC33323T in combination with seven strains of Bifidobacterium bifidum compared to single bacterium culture ([10]; summary of Table 11): promoted
CC(=O)N[C@H]1[C@H](O[C@H]2[C@@H](O)[C@@H](CO)O[C@@H](O[C@H]3[C@H](O)[C@@H](O)C(O)O[C@@H]3CO)[C@@H]2O)O[C@H](CO)[C@@H](O[C@@H]2O[C@H](CO)[C@H](O)[C@H](O)[C@H]2O)[C@@H]1O (mixture of isomers) [LNnT, lacto-N-neotetraose]	0.535	0.522	0.370	0.373	0.719	1.53	2.58	1.41	3.87	19.98	4.17	3.58	4.21	2.39	6.03	promoted	3.77	1.53	proliferation promotion effect of the number of bacteria of MCC-525 ([8]; in the combination with Bifidobacterium bifidum (NITE BP-1252)): significantly higher
